Experiment [1] has as its system C. albicans. Description: Serial cell dilution (spotting) assay, growth with RAD. The class given is cell-based, Candida albicans. The note with it: 1 μM RAD; CAI4 and CaERG3/erg3; SD medium, 30° C., two days. As for the experimental part: Serial dilutions of CAI4 and CaERG3/erg3 were spotted on SD medium (upper panel) and medium supplemented with 1 μM RAD (bottom panel). Plates were photographed after two days at 30° C. in the dark.
(§1) Strains were grown to saturation in SD medium and cell concentrations were standardized based on optical density. Five-fold dilutions, starting from ˜4×10^6 cells/ml, were spotted on media, as indicated in the figure legends, using a spotter (Frogger, V&P Scientific, Inc). The plates were photographed after 2-3 days in the dark at the indicated temperature. For all spotting assays in which Hsp90 or calcineurin inhibitors were employed, the corresponding plates without these inhibitors was supplemented with the maximum final concentration of DMSO used (0.14%), as a solvent control.

Experiment [2] deals with S. cerevisiae. Description: Serial cell dilution (spotting) assay with or without fluconazole. To be noted: GdA 5 μM or RAD 1 μM; 64 μg/ml fluconazole; rich medium, 30° C.; concordant by MIC testing. It counts as cell-based, Saccharomyces cerevisiae. As for the experimental part:
FIG. 4. Hsp90 and calcineurin are required for FL resistance acquired through diverse mutations. […] Top two panels, deletion mutants. Bottom panel, control strains obtained by rapid (R1-3) and gradual (G1-3) selection. (A) Hsp90 was inhibited by GdA (5 μM) or RAD (1 μM), as indicated. (B) Calcineurin was inhibited by cyclosporin A (CsA, 20 μM).
as §1

Experiment [3] has as its system S. cerevisiae. Description: Fluconazole MIC test (broth microdilution) with Hsp90 or calcineurin inhibitors. It counts as cell-based, Saccharomyces cerevisiae. As for the experimental part:
(§2) Cell densities of overnight cultures were determined and dilutions were prepared such that ˜10^3 cells were inoculated into each well. Radicicol (RAD, A.G. Scientific, Inc.) and geldanamycin (GdA, Alexis Biochemicals) were employed to inhibit Hsp90 at the concentrations indicated in the figure legends (1-5 μM). Cyclosporin A (CsA, CalBiochem) was employed to inhibit calcineurin at a concentration of 20 μM. Dimethyl sulfoxide (DMSO, Sigma-Aldrich Co.) was the solvent for RAD, GdA, and CsA. Thus, the maximum final DMSO concentration (0.14%) was included in FL MIC tests performed in the absence of RAD, GdA, or CsA to control for any solvent effects.
After 48 hours, plates were sealed with a clear film (Axygen Scientific), re-suspended by agitation, and absorbance was determined at 595 nm with the Multiskan Ascent photometer (Thermo Labsystems, Thermo Electron Corporation). Absorbance values were corrected for background from the corresponding medium. MICs were determined as the concentration of FL that inhibits fungal growth by 50% relative to the FL-free growth control. The MIC of each strain was tested at least two independent times in duplicate. Most strains were tested in rich medium (half-strength YPD) and SD medium. C. albicans clinical isolates were also tested in the synthetic defined medium that is the standard for clinical testing, RPMI (9).
Background: Broth dilution looks for growth in wells or tubes with falling amounts of substance.

The subject of experiment [4] is C. albicans. Description: Selection of fluconazole-resistant mutants on plates. The class given is cell-based, Candida albicans. To be noted: 128 μg/ml fluconazole and 1 μM RAD; CAI4 and CaERG3/erg3; 7 days, 30° C. Here is the method: Strains of C. albicans were grown at 30° C. in SD prior to plating ˜10^4 cells on SD plates with 128 μg/ml FL or with both 128 μg/ml FL and 1 μM RAD. Plates were photographed after 7 days at 30° C. in the dark.

For experiment [5], the system named is C. albicans. Description: Fluconazole MIC test (broth microdilution). The class given is cell-based, Candida albicans. The note with it: CAI4 and CaERG3/erg3. As for the experimental part:
as §2
After 48 hours, plates were sealed with a clear film (Axygen Scientific), re-suspended by agitation, and absorbance was determined at 595 nm with the Multiskan Ascent photometer (Thermo Labsystems, Thermo Electron Corporation). Absorbance values were corrected for background from the corresponding medium. […] The MIC of each strain was tested at least two independent times in duplicate. Most strains were tested in rich medium (half-strength YPD) and SD medium. C. albicans clinical isolates were also tested in the synthetic defined medium that is the standard for clinical testing, RPMI (9).

The test system of experiment [6] is C. albicans. To be noted: synthetic defined media; previous studies; cited from earlier work.
Experiment [7] concerns A. terreus soil isolate ATCC 10020. Description: Etest strip drug resistance. It counts as cell-based, Aspergillus terreus. To be noted: rich medium, 35° C., 36 hours. Here is the method:
FIG. 6. Hsp90 potentiates resistance to different drugs in C. albicans and A. terreus. […] Plates contained the Hsp90 inhibitor RAD (5 μM) or the calcineurin inhibitor CsA (20 μM). The MIC value is where the inhibition ellipse intersects the strip.
Resistance of C. albicans clinical isolate T118 and A. terreus soil isolate ATCC 10020 to FL, voriconazole (VO), and caspofungin (CS) was determined with Etest strips (AB Biodisk) on rich medium (half-strength YPD). For C. albicans, standardized inoculum was prepared as described above and ˜10^5 cells were plated on medium with the Hsp90 inhibitor RAD (5 μM), the calcineurin inhibitor CsA (20 μM), or the solvent control (0.14% DMSO), prior to application of a test strip. Plates were photographed after 36 hours at 30° C. in the dark. For A. terreus, inoculum was prepared according to a standard protocol (15) and ˜10^5 conidia were plated prior to application of a test strip. Plates were photographed after 36 hours at 35° C. in the dark.

Where [8] appears, read: GdA 5 μM or RAD 5 μM, SD medium, 30° C.

“Also recorded” adds a separate entry of the source.

For the molecule `C[C@@H]1C[C@H]2O[C@@H]2/C=C\C=C\C(=O)Cc2c(Cl)c(O)cc(O)c2C(=O)O1` [RAD, radicicol], in the experiment on C. albicans [1], the “effect on growth in the absence of fluconazole” value is listed as “does not impair growth; also recorded: had no effect on growth”. In the experiment with S. cerevisiae [2], the “effect on fluconazole resistance of eleven deletion mutants” value is recorded as “reduced the fluconazole resistance in all of them”. Moreover, the “effect of inhibitor alone on growth” value with S. cerevisiae [3] (GdA 5 μM or RAD 5 μM, 0 μg/ml fluconazole, SD medium, 30° C.) is recorded as “did not impair growth on their own”. Besides, in the experiment with S. cerevisiae [3] (setting [8]), the “effect on fluconazole resistance of G1-3 strains (gradual selection)” value is on record as “neither GdA nor RAD altered resistance”, the “effect on fluconazole resistance of R1-3 strains (rapid selection)” value was “abolished fluconazole resistance” and the “effect on fluconazole sensitivity of progenitor strains” value was “had no effect”. Further, the “colonies recovered on selection plates with fluconazole plus RAD” value in the experiment on C. albicans [4] is “no colonies were recovered”.
For the molecule `OC(Cn1cncn1)(Cn1cncn1)c1ccc(F)cc1F` [fluconazole], the “fluconazole concentration at which growth is completely arrested” value with C. albicans [5] worked out at 16 µg/mL; in the experiment with S. cerevisiae [3] (all strains (Lo90, Re90, Hi90), SD medium, 23° C.), 16 µg/mL. In the experiment on C. albicans [6], the “fluconazole sensitivity of clinical isolate T118” value was “sensitive”.
In the case of `C[C@@H](c1ncncc1F)[C@](O)(Cn1cncn1)c1ccc(F)cc1F` [voriconazole], in experiment [7], the “sensitivity of A. terreus to voriconazole relative to fluconazole” value is recorded as “much more sensitive to this azole than to fluconazole”. Besides, the “voriconazole resistance of FLR strains” value with S. cerevisiae [3] (all FLR strains obtained by rapid fluconazole selection) is given as “resistant”.

The record behind these values is patent publication US8343913B1, “Hsp90, buffering and drug resistance” (priority 2004, dated 2013).
